{
  "source": "patent EP0497314A1",
  "about": "“Use of azapirones in attention deficit hyperactivity disorder” (Bristol-Myers Squibb Company, priority 1991, dated 1992)",
  "key": {"rabbit cortex": {"test_system": "rabbit cortex", "test": "Quantitative EEG, rabbit cortex, intravenous administration", "format": "in vivo, rabbits", "details": "for group percent change in electrical energy from pre-drug control, Δ band / mean change ± S.E. in electrical energy from pre-drug control, Δ band: Δ = 0.5-3.5 Hz; for group percent change in electrical energy from pre-drug control, α band / mean change ± S.E. in electrical energy from pre-drug control, α band: α= 7-13 Hz; for group percent change in electrical energy from pre-drug control, β band / mean change ± S.E. in electrical energy from pre-drug control, β band: β= 13-25 Hz; for group percent change in electrical energy from pre-drug control, γ band / mean change ± S.E. in electrical energy from pre-drug control, γ band: γ= 25-40 Hz; for group percent change in electrical energy from pre-drug control, θ band / mean change ± S.E. in electrical energy from pre-drug control, θ band: θ= 3.5-7.0 Hz", "procedure,_shortened": "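Restrained rabbits with cortical leads had EEG split into Δ, ϑ, α, β and γ bands and integrated over 1 h from the moment of i.v. injection, in saline, dosed as free base. Counts were compared with each animal's own pretreatment control by paired t-test (p≦0.05). Doses were reduced geometrically to a no-effect level.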"}, "[1]": {"test_system": "fronto-occipital cortex of the cat", "test": "Quantitative EEG, fronto-occipital cat cortex, subcutaneous administration", "format": "in vivo, cats", "details": "for group percent change in electrical energy from pre-drug control, Δ band / mean change ± S.E. in electrical energy from pre-drug control, Δ band / group percent change in electrical energy from pre-drug control, α band / mean change ± S.E. in electrical energy from pre-drug control, α band / group percent change in electrical energy from pre-drug control, β band / mean change ± S.E. in electrical energy from pre-drug control, β band / group percent change in electrical energy from pre-drug control, γ band / mean change ± S.E. in electrical energy from pre-drug control, γ band / group percent change in electrical energy from pre-drug control, θ band / mean change ± S.E. in electrical energy from pre-drug control, θ band: fronto-occipital cat cortex; for group percent change in electrical energy from pre-drug control, Δ band / mean change ± S.E. in electrical energy from pre-drug control, Δ band: Δ = 0.5-3.5 Hz; for group percent change in electrical energy from pre-drug control, α band / mean change ± S.E. in electrical energy from pre-drug control, α band: α= 7-13 Hz; for group percent change in electrical energy from pre-drug control, β band / mean change ± S.E. in electrical energy from pre-drug control, β band: β= 13-25 Hz; for group percent change in electrical energy from pre-drug control, γ band / mean change ± S.E. in electrical energy from pre-drug control, γ band: γ= 25-40 Hz; for group percent change in electrical energy from pre-drug control, θ band / mean change ± S.E. in electrical energy from pre-drug control, θ band: θ= 3.5-7.0 Hz", "procedure,_shortened": "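Adult female mongrel cats (n=6 per group) with implanted electrodes were recorded while held in restraining bags, with EEG filtered into Δ, ϑ, α, β and γ bands and integrated as energy counts. Drugs were given subcutaneously in saline, with doses calculated as free base, and recording started 30 min post-injection. Changes from each animal's pre-treatment control were tested by paired Student t-test (P≦0.05).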"}, "[2]": {"details": "rabbit cortex, 0.125 mg/kg free base i.v."}, "[3]": {"details": "rabbit cortex, 0.25 mg/kg free base i.v."}},
  "note": "Where a name gives a salt, the structure may show the parent alone. Marks after values point to notes of the source that are not given here.",
  "data": [
    {"smiles": "CSc1ccc2c(c1)N(CCC1CCCCN1C)c1ccccc1S2", "note": "(centres unmarked) [Thioridazine HCl, thioridazine]", "values": [
      {"measurement": "minimal effective dose", "setting": "rabbit cortex; Oryctolagus cuniculus, iv, rabbit cortex EEG, dose of free base, read-out: the minimum dose required to produce the EEG profile characteristic of that particular drug", "value": 0.25, "unit": "mg/kg"},
      {"measurement": "relative potency by comparing minimal doses required to elicit EEG profiles", "setting": "rabbit cortex; rabbit cortex EEG, i.v.", "value": "approximately twice as potent as buspirone"},
      {"measurement": "the no-effect dose", "setting": "rabbit cortex; rabbit cortex EEG, dose of free base", "value": "0.125† mg/kg, i.v."},
      {"measurement": "EEG profile", "setting": "rabbit cortex; rabbit cortex, i.v.", "value": "completely different from that produced by stimulant drugs"},
      {"measurement": "group percent change in electrical energy from pre-drug control, Δ band", "setting": "rabbit cortex; [2]", "value": "+3%"},
      {"measurement": "mean change ± S.E. in electrical energy from pre-drug control, Δ band", "setting": "rabbit cortex; [2]", "value": "+11 ± 23 instrument counts"},
      {"measurement": "group percent change in electrical energy from pre-drug control, Δ band", "setting": "rabbit cortex; [3]", "value": "+69%"},
      {"measurement": "mean change ± S.E. in electrical energy from pre-drug control, Δ band", "setting": "rabbit cortex; [3]", "value": "+143 ± 11 instrument counts"},
      {"measurement": "group percent change in electrical energy from pre-drug control, α band", "setting": "rabbit cortex; [2]", "value": 0, "unit": "%"},
      {"measurement": "mean change ± S.E. in electrical energy from pre-drug control, α band", "setting": "rabbit cortex; [2]", "value": "0 ± 6", "unit": "instrument counts"},
      {"measurement": "group percent change in electrical energy from pre-drug control, α band", "setting": "rabbit cortex; [3]", "value": "+34%"},
      {"measurement": "mean change ± S.E. in electrical energy from pre-drug control, α band", "setting": "rabbit cortex; [3]", "value": "+54 ± 2 instrument counts"},
      {"measurement": "group percent change in electrical energy from pre-drug control, β band", "setting": "rabbit cortex; [2]", "value": "+3%"},
      {"measurement": "mean change ± S.E. in electrical energy from pre-drug control, β band", "setting": "rabbit cortex; [2]", "value": "+5 ± 4 instrument counts"},
      {"measurement": "group percent change in electrical energy from pre-drug control, β band", "setting": "rabbit cortex; [3]", "value": "+35%"},
      {"measurement": "mean change ± S.E. in electrical energy from pre-drug control, β band", "setting": "rabbit cortex; [3]", "value": "+39 ± 4 instrument counts"},
      {"measurement": "group percent change in electrical energy from pre-drug control, γ band", "setting": "rabbit cortex; [2]", "value": "+1%"},
      {"measurement": "mean change ± S.E. in electrical energy from pre-drug control, γ band", "setting": "rabbit cortex; [2]", "value": "+1 ± 1 instrument counts"},
      {"measurement": "group percent change in electrical energy from pre-drug control, γ band", "setting": "rabbit cortex; [3]", "value": "+5%"},
      {"measurement": "mean change ± S.E. in electrical energy from pre-drug control, γ band", "setting": "rabbit cortex; [3]", "value": "+5 ± 1 instrument counts"},
      {"measurement": "group percent change in electrical energy from pre-drug control, θ band", "setting": "rabbit cortex; [2]", "value": -5, "unit": "%"},
      {"measurement": "mean change ± S.E. in electrical energy from pre-drug control, θ band", "setting": "rabbit cortex; [2]", "value": "-13 ± 8", "unit": "instrument counts"},
      {"measurement": "group percent change in electrical energy from pre-drug control, θ band", "setting": "rabbit cortex; [3]", "value": "+21%"},
      {"measurement": "mean change ± S.E. in electrical energy from pre-drug control, θ band", "setting": "rabbit cortex; [3]", "value": "+43 ± 4 instrument counts"},
      {"measurement": "minimal effective dose", "setting": "[1]; Felis catus, sc, fronto-occipital cat cortex EEG, dose of free base, read-out: the minimum dose required to produce the EEG profile characteristic of that particular drug", "value": 1, "unit": "mg/kg"},
      {"measurement": "the no-effect dose", "setting": "[1]; fronto-occipital cat cortex EEG, dose of free base", "value": "0.5† mg/kg, s.c."},
      {"measurement": "group percent change in electrical energy from pre-drug control, Δ band", "setting": "[1]; 0.5 mg/kg free base s.c.", "value": "+5%"},
      {"measurement": "mean change ± S.E. in electrical energy from pre-drug control, Δ band", "setting": "[1]; 0.5 mg/kg free base s.c.", "value": "+11 ± 21 instrument counts"},
      {"measurement": "group percent change in electrical energy from pre-drug control, Δ band", "setting": "[1]; 1.0 mg/kg free base s.c.", "value": "+19%"},
      {"measurement": "mean change ± S.E. in electrical energy from pre-drug control, Δ band", "setting": "[1]; 1.0 mg/kg free base s.c.", "value": "+38 ± 11 instrument counts"},
      {"measurement": "group percent change in electrical energy from pre-drug control, Δ band", "setting": "[1]; 8.0 mg/kg free base s.c.", "value": "+28%"},
      {"measurement": "mean change ± S.E. in electrical energy from pre-drug control, Δ band", "setting": "[1]; 8.0 mg/kg free base s.c.", "value": "+54 ± 8 instrument counts"},
      {"measurement": "group percent change in electrical energy from pre-drug control, α band", "setting": "[1]; 0.5 mg/kg free base s.c.", "value": 0, "unit": "%"},
      {"measurement": "mean change ± S.E. in electrical energy from pre-drug control, α band", "setting": "[1]; 0.5 mg/kg free base s.c.", "value": "0 ± 7", "unit": "instrument counts"},
      {"measurement": "group percent change in electrical energy from pre-drug control, α band", "setting": "[1]; 1.0 mg/kg free base s.c.", "value": "+18%"},
      {"measurement": "mean change ± S.E. in electrical energy from pre-drug control, α band", "setting": "[1]; 1.0 mg/kg free base s.c.", "value": "+20 ± 5 instrument counts"},
      {"measurement": "group percent change in electrical energy from pre-drug control, α band", "setting": "[1]; 8.0 mg/kg free base s.c.", "value": "+26%"},
      {"measurement": "mean change ± S.E. in electrical energy from pre-drug control, α band", "setting": "[1]; 8.0 mg/kg free base s.c.", "value": "+25 ± 6 instrument counts"},
      {"measurement": "group percent change in electrical energy from pre-drug control, β band", "setting": "[1]; 0.5 mg/kg free base s.c.", "value": -3, "unit": "%"},
      {"measurement": "mean change ± S.E. in electrical energy from pre-drug control, β band", "setting": "[1]; 0.5 mg/kg free base s.c.", "value": "-3 ± 3", "unit": "instrument counts"},
      {"measurement": "group percent change in electrical energy from pre-drug control, β band", "setting": "[1]; 1.0 mg/kg free base s.c.", "value": "+3%"},
      {"measurement": "mean change ± S.E. in electrical energy from pre-drug control, β band", "setting": "[1]; 1.0 mg/kg free base s.c.", "value": "+3 ± 4 instrument counts"},
      {"measurement": "group percent change in electrical energy from pre-drug control, β band", "setting": "[1]; 8.0 mg/kg free base s.c.", "value": -2, "unit": "%"},
      {"measurement": "mean change ± S.E. in electrical energy from pre-drug control, β band", "setting": "[1]; 8.0 mg/kg free base s.c.", "value": "-3 ± 4", "unit": "instrument counts"},
      {"measurement": "group percent change in electrical energy from pre-drug control, γ band", "setting": "[1]; 0.5 mg/kg free base s.c.", "value": -5, "unit": "%"},
      {"measurement": "mean change ± S.E. in electrical energy from pre-drug control, γ band", "setting": "[1]; 0.5 mg/kg free base s.c.", "value": "-3 ± 3", "unit": "instrument counts"},
      {"measurement": "group percent change in electrical energy from pre-drug control, γ band", "setting": "[1]; 1.0 mg/kg free base s.c.", "value": -11, "unit": "%"},
      {"measurement": "mean change ± S.E. in electrical energy from pre-drug control, γ band", "setting": "[1]; 1.0 mg/kg free base s.c.", "value": "-9 ± 4", "unit": "instrument counts"},
      {"measurement": "group percent change in electrical energy from pre-drug control, γ band", "setting": "[1]; 8.0 mg/kg free base s.c.", "value": -15, "unit": "%"},
      {"measurement": "mean change ± S.E. in electrical energy from pre-drug control, γ band", "setting": "[1]; 8.0 mg/kg free base s.c.", "value": "-12 ± 3", "unit": "instrument counts"},
      {"measurement": "group percent change in electrical energy from pre-drug control, θ band", "setting": "[1]; 0.5 mg/kg free base s.c.", "value": -1, "unit": "%"},
      {"measurement": "mean change ± S.E. in electrical energy from pre-drug control, θ band", "setting": "[1]; 0.5 mg/kg free base s.c.", "value": "-2 ± 8", "unit": "instrument counts"},
      {"measurement": "group percent change in electrical energy from pre-drug control, θ band", "setting": "[1]; 1.0 mg/kg free base s.c.", "value": "+24%"},
      {"measurement": "mean change ± S.E. in electrical energy from pre-drug control, θ band", "setting": "[1]; 1.0 mg/kg free base s.c.", "value": "+29 ± 5 instrument counts"},
      {"measurement": "group percent change in electrical energy from pre-drug control, θ band", "setting": "[1]; 8.0 mg/kg free base s.c.", "value": "+30%"},
      {"measurement": "mean change ± S.E. in electrical energy from pre-drug control, θ band", "setting": "[1]; 8.0 mg/kg free base s.c.", "value": "+40 ± 6 instrument counts"}
    ]}
  ]
}
